Test results as given in US5830672A, “Elisa kit for the rapid determination of N-acetyltransferase (NAT2) phenotypes” (priority 1996, dated 1998).

What was measured:
1X-Ab = assay: Competitive antigen ELISA, cross-reactivity of 1X-Ab; format: binding, rabbit; details: for % Cross-Reaction 1X-Ab: 0 = absence of inhibition or inhibition no higher than 40% at highest concentration tested (5 × 10^-3 M)
Procedure: (§1) Four mature females New Zealand white rabbits (Charles River Canada, St-Constant, Que., Canada) were used for antibody production. The protocol employed in this study was approved by the McGill University Animal Care Committee in accordance with the guidelines from the Canadian Council on Animal Care. An isotonic saline solution (0.6 mL) containing […] of BSA conjugated antigen was emulsified with 0.6 mL of a complete Freund's adjuvant. 0.5 mL of the emulsion (100 mg of antigen) was injected per rabbit intramuscularly or subcutaneously. Rabbits were subsequently boosted at intervals of three weeks with 50 mg of antigen emulsified in incomplete Freund's adjuvant. Blood was collected by venipuncture of the ear 10-14 days after boosting. Antisera were stores at 4° C. in the presence of 0.01% sodium azide. Buffers and water without additives were filtered through millipore filters and kept for 1 week. BSA, antibodies, Tween™ 20 and horse radish peroxidase conjugates were added to these buffers and water just prior to use. Urine samples were usually collected 4 hours after drinking a cup of coffee (instant or brewed with approximately 100 mg of caffeine per cup) and stored at -80° C. They were diluted 10 times with sodium phosphate buffer (620 mosm, pH 7.50) and were subsequently diluted with water to give concentrations of AAMU and 1X no higher than 3×10^-6 M in the ELISA. All the pipettings were done with an eight-channel pipette, except those of the antibody and sample solutions. Starting with the last well, 100 μL of a carbonate buffer (100 mM, pH 9.6) containing 2.5 μg mL^-1 antibodies was pipetted. […] After the initial wash, unoccupied sites were blocked by incubation for 90 min. at room temperature with 100 μL TPB containing 3% BSA. The wells were washed four times with 100 μL TPB. […] AAMU or 1X, 2×10^-4 to 2×10^-8 M) or sample in duplicate. The microplate was gently shaken with an orbital shaker at room temperature for 3-4 hours. […] To the washed plate was added 150 μL of a substrate buffer composed of citric acid (25 mM) and sodium phosphate dibasic buffer (50 mM, pH 5.0) containing 0.06% hydrogen peroxide and 0.04% o-phenylenediamine hydrochloride. […] Buffers and water without additives were filtered through millipore filters and kept for 1 week. BSA, antibodies, Tween™ 20 and horse radish peroxidase conjugates were added to these buffers and water just prior to use. Urine samples were usually collected 4 hours after drinking a cup of coffee (instant or brewed with approximately 100 mg of caffeine per cup) and stored at -80° C. They were diluted 10 times with sodium phosphate buffer (620 mosm, pH 7.50) and were subsequently diluted with water to give concentrations of AAMU and 1X no higher than 3×10^-6 M in the ELISA. All the pipettings were done with an eight-channel pipette, except those of the antibody and sample solutions. Starting with the last well, 100 μL of a carbonate buffer (100 mM, pH 9.6) containing 2.5 μg mL^-1 antibodies was pipetted. […] After the initial wash, unoccupied sites were blocked by incubation for 90 min. at room temperature with 100 μL TPB containing 3% BSA. The wells were washed four times with 100 μL TPB. […] AAMU or 1X, 2×10^-4 to 2×10^-8 M) or sample in duplicate. The microplate was gently shaken with an orbital shaker at room temperature for 3-4 hours. […] To the washed plate was added 150 μL of a substrate buffer composed of citric acid (25 mM) and sodium phosphate dibasic buffer (50 mM, pH 5.0) containing 0.06% hydrogen peroxide and 0.04% o-phenylenediamine hydrochloride. […] Each curve represents triplicate determinations in a single run. The error bars represent standard deviations. For data point with no error bars, the error bars are less the size of the symbol. […] The cross reactivities of AAMU-Ab and 1X-Ab were tested using a wide variety of caffeine metabolites and structural analogs (Table 1 below).

AAMU-Ab = assay: Competitive antigen ELISA, cross-reactivity of AAMU-Ab; format: binding, rabbit; details: for % Cross-Reaction AAMU-Ab: 0 = absence of inhibition or inhibition no higher than 40% at highest concentration tested (5 × 10^-3 M)
Procedure: as §1

[1] = system: N-acetyltransferase (NAT2); details: rapid acetylators at greater risk of severe toxicity; cited from earlier work

SMILES	% Cross-Reaction 1X-Ab (1X-Ab)	% Cross-Reaction AAMU-Ab (AAMU-Ab)	IC50 (AAMU-Ab; AAMU-Ab, read-out: concentration required for 50% inhibition in the competitive antigen ELISA)	IC50 (1X-Ab; 1X-Ab, read-out: concentration required for 50% inhibition in the competitive antigen ELISA)	correlation between toxicity and acetylator phenotype [1]
CC(=O)Nc1c(N)[nH]c(=O)n(C)c1=O	0%	100%	1500 nM	–	–
Cn1c(=O)c2c(ncn2C)n(C)c1=O [1,3,7-Trimethyl Xanthine (Caffeine), 1,3,7-Trimethyl Xanthine]	0%	0%	–	–	–
Cn1c(=O)c2[nH]cnc2n(C)c1=O [1,3-Dimethyl Xanthine (Theophylline), 1,3-Dimethyl Xanthine]	0.2%	0%	–	–	–
Cn1c(=O)[nH]c2ncn(C)c2c1=O [1,7-Dimethyl Xanthine (Paraxanthine), 1,7-Dimethyl Xanthine]	0.5%	0%	–	–	–
Cn1c(=O)[nH]c2[nH]c(=O)n(C)c2c1=O [1,7-Dimethyluric acid]	0%	0%	–	–	–
Cn1c(=O)[nH]c2nc[nH]c2c1=O [1-Methyl Xanthine (1X), 1-Methyl Xanthine]	100%	0%	–	10 µM	–
Cn1c(=O)[nH]c2[nH]c(=O)[nH]c2c1=O [1-Methyluric acid]	11%	0%	–	–	–
Cn1cnc2c1c(=O)[nH]c(=O)n2C [3,7-Dimethyl Xanthine (Theobromine), 3,7-Dimethyl Xanthine]	0%	0%	–	–	–
Cn1c(=O)[nH]c(=O)c2[nH]cnc21 [3-Methyl Xanthine]	0%	0%	–	–	–
CC(=O)Nc1c(N)n(C)c(=O)n(C)c1=O [5-Acetamino-6-amino-1,3-dimethyluracil]	0%	0%	–	–	–
CC(=O)Nc1c(N)[nH]c(=O)[nH]c1=O [5-Acetamino-6-amino-uracil]	0%	0.6%	–	–	–
Cn1cnc2[nH]c(=O)[nH]c(=O)c21 [7-Methyl Xanthine]	0%	0%	–	–	–
Cc1nc2[nH]c(=O)[nH]c(=O)c2[nH]1 [8-Methyl Xanthine]	0%	0%	–	–	–
Nc1nc2nc[nH]c2c(=O)[nH]1 [Guanine]	0%	0%	–	–	–
O=c1[nH]cnc2nc[nH]c12 [Hypoxanthine]	0%	0%	–	–	–
O=c1cc[nH]c(=O)[nH]1 [Uracil]	0%	0%	–	–	–
O=c1[nH]c(=O)c2[nH]c(=O)[nH]c2[nH]1 [Uric acid]	0%	0%	–	–	–
O=c1[nH]c(=O)c2[nH]cnc2[nH]1 [Xanthine]	0%	0%	–	–	–
CN(C)CCN1C(=O)c2cccc3cc(N)cc(c23)C1=O [amonafide]	–	–	–	–	direct correlation between toxicity and the acetylator phenotype
